Earlier results as cited in patent publication US8338613B2, “Process for the preparation of bidentate schiff base ruthenium catalysts containing a salicylaldimine-type ligand” (RIMTEC Corporation, priority 2009, dated 2012).

Details: in water (for Ag2CO3)

SMILES	pKb
O=C([O-])[O-].[Na+].[Na+] [Na2CO3]	about 3.69
O=C([O-])[O-].[Cu+2] [CuCO3]	about 3.69
O=C([O-])[O-].[Li+].[Li+] [Li2CO3]	about 3.69
O=C([O-])[O-].[K+].[K+] [K2CO3]	about 3.69
